Non-standard residues stand in square brackets, D forms with d. Residues, ends and D or L forms follow the SMILES beside them. *: point of attachment. d(αMeV) = CC(C)[C@@](C)(N)C(=O)O; αMeV = CC(C)[C@](C)(N)C(=O)O; X1 = C[C@@H](N*)C(F)(F)F; Cbz = O=C(OCc1ccccc1)*; Aib = CC(C)(N)C(=O)O
Assay: Maximum solubility of foldamer in chloroform (saturated solution, 1H NMR)
Type: physicochemical
Conditions: thermodynamic, dissolved in CDCl3 until saturated; concentration by 1H NMR against a known concentration of CH2Cl2 as internal reference
Description: 9. Quantification of foldamer solubility and self-association in CHCl3
9.1 Experimental procedure (dilution)
Compounds 5d (L-αMeVal) and 5e (D-αMeVal) were dissolved in CDCl3 until saturated solutions were formed.
The initial concentration of each sample was measured using a known concentration of CH2Cl2 as an internal […]
Additional volumes of CDCl3 were added to the initial solution and the 1H NMR spectrum at each concentration […]
The binding isotherms were generated using an Excel spreadsheet macro developed by Sanderson.S7a The Solver add-in for Excel was used to calculate the best fit to the NMR data using the ‘GRG onlinear Solvin […]
The following equilibrium is used to calculate the binding isotherms:
Where Kdim is the microscopic association constant and n = 2.
The following equation is used to calculate the binding isotherm: […]
δfree is the free chemical shift of the host
δobs is the observed chemical shift […]
The concentration of the dimeric complex (H)2 is calculated iteratively by solving the following equations: […]
The concentration of free host is calculated according to the concentration difference […]
The propensity of the L-αMeVal-capped foldamer 5d and D-αMeVal-capped foldamer 5e to self-associate was investigated in chloroform by performing a dilution study,S7 which at the same time quantified the solubility of these compounds in this solvent. […]

## CC(C)[C@](C)(NC(=O)OCc1ccccc1)C(=O)NC(C)(C)C(=O)NC(C)(C)C(=O)NC(C)(C)C(=O)NC(C)(C)C(=O)N[C@H](C)C(F)(F)F [5d, Cbz(L-MeVal)Aib4(R-TFEA)] (Cbz-[αMeV][Aib][Aib][Aib][Aib]-X1)
  maximum solubility in CHCl3 / chloroform-d: 288 mM

## CC(C)[C@@](C)(NC(=O)OCc1ccccc1)C(=O)NC(C)(C)C(=O)NC(C)(C)C(=O)NC(C)(C)C(=O)NC(C)(C)C(=O)N[C@H](C)C(F)(F)F [5e, Cbz(D-MeVal)Aib4(R-TFEA)] (Cbz-[d(αMeV)][Aib][Aib][Aib][Aib]-X1)
  maximum solubility in CHCl3 / chloroform-d: 50 mM
